Data reported in the supplement of paper PMC10307832.

Assays:
Assay in all cases: relative viability (nuclei count vs DMSO), 5 days (fraction); higher = more cells survive
Irinotecan + Phenformin = compound: CCc1c2c(nc3ccc(OC(=O)N4CCC(N5CCCCC5)CC4)cc13)-c1cc3c(c(=O)n1C2)COC(=O)[C@]3(O)CC [Irinotecan] + N=C(N)NC(=N)NCCc1ccccc1 [Phenformin] (partner 250 µM)
Outline: (§1)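 Lung cancer cell lines were seeded in 1536-well plates and dosed by pin tool the next day, with either a single drug or a fixed anchor-drug dose combined with five library-drug doses (not always all listed) spaced in √10 steps. Five days later, one step fixed the cells and stained their nuclei (final 0.05% Triton X-100, 1% formaldehyde, 1 ug/ml Hoechst), and nuclei were counted on 4× images. Relative viability is the nuclei count in treated wells divided by the count in vehicle wells, and each value is the median of duplicate plates.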

RU-SKI 43 + Tozasertib = compound: CC[C@@H](C)CNCC(=O)N1CCC2=C([C@@H]1COC3=CC=CC(=C3)C)C=CS2 [RU-SKI 43] + Cc1cc(Nc2cc(N3CCN(C)CC3)nc(Sc3ccc(NC(=O)C4CC4)cc3)n2)n[nH]1 [Tozasertib] (partner 0.1 µM)
Outline: as §1

RU-SKI 43 + Olaparib = compound: CC[C@@H](C)CNCC(=O)N1CCC2=C([C@@H]1COC3=CC=CC(=C3)C)C=CS2 [RU-SKI 43] + O=C(c1cc(Cc2n[nH]c(=O)c3ccccc23)ccc1F)N1CCN(C(=O)C2CC2)CC1 [Olaparib] (partner 8 µM)
Outline: as §1

Irinotecan + Linsitinib = compound: CCc1c2c(nc3ccc(OC(=O)N4CCC(N5CCCCC5)CC4)cc13)-c1cc3c(c(=O)n1C2)COC(=O)[C@]3(O)CC [Irinotecan] + C[C@]1(O)C[C@@H](c2nc(-c3ccc4ccc(-c5ccccc5)nc4c3)c3c(N)nccn32)C1 [Linsitinib] (partner 1 µM)
Outline: as §1

Row | Cell Line | relative viability (Irinotecan + Phenformin; first compound 0.6325 µM) | relative viability (Irinotecan + Phenformin; first compound 2 µM) | relative viability (Irinotecan + Phenformin; first compound 6.325 µM) | relative viability (Irinotecan + Phenformin; first compound 20 µM) | relative viability (RU-SKI 43 + Tozasertib; first compound 0.1 µM) | relative viability (RU-SKI 43 + Tozasertib; first compound 0.3162 µM) | relative viability (RU-SKI 43 + Tozasertib; first compound 1 µM) | relative viability (RU-SKI 43 + Tozasertib; first compound 3.162 µM) | relative viability (RU-SKI 43 + Tozasertib; first compound 10 µM) | relative viability (RU-SKI 43 + Olaparib; first compound 0.1 µM) | relative viability (RU-SKI 43 + Olaparib; first compound 0.3162 µM) | relative viability (RU-SKI 43 + Olaparib; first compound 1 µM) | relative viability (RU-SKI 43 + Olaparib; first compound 3.162 µM) | relative viability (RU-SKI 43 + Olaparib; first compound 10 µM) | relative viability (Irinotecan + Linsitinib; first compound 0.6325 µM) | relative viability (Irinotecan + Linsitinib; first compound 2 µM) | relative viability (Irinotecan + Linsitinib; first compound 6.325 µM) | relative viability (Irinotecan + Linsitinib; first compound 20 µM)
1 | COR-L23 | 0.31 | 0.394 | 0.188 | 0.108 | 0.18 | 0.179 | 0.188 | 0.164 | 0.176 | 0.333 | 0.403 | 0.377 | 0.325 | 0.359 | 0.392 | 0.284 | 0.203 | 0.123
2 | NCI-H2347 | 0.284 | 0.263 | 0.298 | 0.246 | 0.448 | 0.449 | 0.523 | 0.535 | 0.501 | 0.547 | 0.499 | 0.553 | 0.504 | 0.569 | 0.761 | 0.739 | 0.498 | 0.5
3 | LU99A | 0.369 | 0.37 | 0.208 | 0.301 | 0.255 | 0.234 | 0.279 | 0.202 | 0.227 | 0.261 | 0.276 | 0.285 | 0.271 | 0.262 | 0.233 | 0.247 | 0.224 | 0.238
4 | COR-L 105 | 0.505 | 0.682 | 0.41 | 0.182 | 0.317 | 0.252 | 0.32 | 0.339 | 0.332 | 0.658 | 0.57 | 0.815 | 0.683 | 0.603 | 0.883 | 0.898 | 0.637 | 0.314
5 | PC-3 [JPC-3] | 0.424 | 0.472 | 0.318 | 0.349 | 0.815 | 0.953 | 1.02 | 0.959 | 0.773 | 1.09 | 1.3 | 1.2 | 1.2 | 1.06 | 0.842 | 0.413 | 0.377 | 0.412
6 | NCI-H2009 | 0.421 | 0.411 | 0.232 | 0.167 | 0.725 | 0.896 | 0.727 | 0.64 | 0.504 | 0.659 | 0.803 | 0.735 | 0.698 | 0.584 | 0.876 | 0.493 | 0.262 | 0.221
7 | HCC-366 | 0.495 | 0.371 | 0.0734 | 0.078 | 0.098 | 0.0997 | 0.124 | 0.132 | 0.0872 | 0.307 | 0.464 | 0.314 | 0.424 | 0.31 | 0.443 | 0.152 | 0.0502 | 0.0674
8 | HARA | 0.351 | 0.157 | 0.11 | 0.113 | 0.125 | 0.0842 | 0.118 | 0.111 | 0.108 | 0.822 | 0.735 | 0.754 | 0.894 | 0.923 | 0.623 | 0.152 | 0.148 | 0.154
9 | HCC-827 | 0.345 | 0.349 | 0.159 | 0.209 | 0.435 | 0.523 | 0.592 | 0.426 | 0.368 | 0.614 | 0.733 | 0.659 | 0.72 | 0.669 | 0.599 | 0.302 | 0.241 | 0.258
10 | LXF-289 | 0.5 | 0.46 | 0.262 | 0.162 | 0.229 | 0.249 | 0.21 | 0.2 | 0.183 | 1.09 | 1.09 | 1.17 | 1.16 | 0.948 | 0.951 | 0.414 | 0.2 | 0.186
11 | NCI-H460 | 0.21 | 0.272 | 0.0796 | 0.0368 | 0.545 | 0.4 | 0.544 | 0.504 | 0.274 | 0.389 | 0.702 | 0.47 | 0.49 | 0.334 | 0.455 | 0.376 | 0.0862 | 0.0869
12 | NCI-H2023 | 0.415 | 0.391 | 0.178 | 0.0825 | 0.32 | 0.438 | 0.516 | 0.424 | 0.218 | 0.457 | 0.478 | 0.44 | 0.416 | 0.526 | 0.714 | 0.503 | 0.198 | 0.0873
13 | PC-14 |  | 0.661 | 0.242 | 0.155 | 0.635 | 0.522 | 0.7 | 0.554 | 0.471 | 0.22 | 0.174 | 0.294 | 0.263 | 0.401 | 0.902 | 0.609 | 0.188 | 0.204
14 | NCI-H1734 |  | 0.357 | 0.244 | 0.17 | 0.238 | 0.217 | 0.276 | 0.258 | 0.267 | 0.559 | 0.661 | 0.656 | 0.589 | 0.591 | 0.797 | 0.355 | 0.155 | 0.195
15 | NCI-H727 | 0.464 | 0.611 | 0.524 | 0.413 | 0.658 | 0.583 | 0.54 | 0.564 | 0.629 |  | 0.515 | 0.694 | 0.67 | 0.624 | 0.157 | 0.334 | 0.284 | 0.391
16 | HOP-62 | 0.443 | 0.532 | 0.267 | 0.204 | 0.359 | 0.371 | 0.479 | 0.344 | 0.287 | 0.322 | 0.235 | 0.223 | 0.511 | 0.436 | 0.146 | 0.158 | 0.138 | 0.203
17 | NCI-H2405 |  | 0.392 | 0.309 | 0.279 | 0.73 | 0.705 | 0.713 | 0.701 | 0.629 | 0.835 | 0.885 | 0.905 | 0.855 | 0.842 |  | 0.763 | 0.294 | 0.18
18 | A-427 |  | 0.21 | 0.173 | 0.184 | 0.226 | 0.165 | 0.23 | 0.21 | 0.196 | 0.707 | 0.759 | 0.68 | 0.752 | 0.626 |  | 0.231 | 0.221 | 0.198
19 | LCLC-97TM1 | 0.322 | 0.205 | 0.127 | 0.115 | 0.26 | 0.22 | 0.207 | 0.21 | 0.231 | 0.408 | 0.347 | 0.535 | 0.446 | 0.416 | 0.118 | 0.189 | 0.168 | 0.169
20 | NCI-H3122 | 0.364 | 0.341 | 0.235 | 0.088 | 0.372 | 0.416 | 0.495 | 0.392 | 0.369 | 0.623 | 0.64 | 0.663 | 0.649 | 0.579 | 0.902 | 0.293 | 0.24 | 0.22
21 | RERF-LC-KJ | 0.47 | 0.325 | 0.345 | 0.246 | 0.458 | 0.583 | 0.476 | 0.505 | 0.352 | 0.818 | 1.04 | 0.914 | 0.876 | 0.811 | 0.807 | 0.647 | 0.379 | 0.34
22 | ABC-1 |  | 0.292 | 0.229 | 0.0948 | 0.16 | 0.172 | 0.18 | 0.166 | 0.185 | 0.714 | 0.786 | 0.908 | 0.926 | 0.705 |  | 0.676 | 0.344 | 0.238
23 | HCC-44 |  | 0.251 | 0.147 | 0.211 | 0.962 |  | 0.903 | 1.02 | 0.87 | 0.984 | 0.981 | 1.06 | 1.06 | 0.954 | 0.677 | 0.305 | 0.168 | 0.249
24 | HCC-15 |  | 0.331 | 0.183 | 0.12 | 0.43 | 0.327 | 0.27 | 0.252 | 0.219 | 0.71 | 0.874 | 0.755 | 0.772 | 0.627 | 0.458 | 0.204 | 0.152 | 0.158
25 | SK-LU-1 | 0.429 | 0.35 | 0.276 | 0.283 | 0.331 | 0.365 | 0.322 | 0.305 | 0.287 | 0.449 | 0.397 | 0.531 | 0.46 | 0.44 | 0.491 | 0.495 | 0.379 | 0.329
26 | NCI-H1793 |  | 0.347 | 0.263 | 0.185 | 0.333 | 0.321 | 0.344 | 0.324 | 0.281 | 0.744 | 0.558 | 1.02 | 0.833 | 0.719 |  | 0.609 | 0.272 | 0.341
27 | H3255 | 0.343 | 0.337 | 0.344 | 0.331 | 0.721 | 0.726 | 0.292 | 0.76 | 0.489 | 0.579 | 0.594 | 0.572 | 0.574 | 0.529 | 0.803 | 0.439 | 0.26 | 0.298
28 | NCI-H1666 | 0.511 | 0.529 | 0.425 | 0.424 | 0.495 | 0.596 | 0.571 | 0.525 | 0.435 | 0.691 | 0.681 | 0.773 | 0.741 | 0.743 | 0.71 | 0.414 | 0.403 | 0.384
29 | 201T |  | 0.489 | 0.361 | 0.333 | 0.883 | 1.03 | 0.883 | 0.931 | 0.812 | 0.835 | 0.888 | 0.843 | 0.858 | 0.836 |  | 0.85 | 0.445 | 0.397
30 | LK-2 | 0.419 | 0.63 | 0.315 | 0.307 | 0.186 | 0.156 | 0.165 | 0.181 | 0.171 | 0.808 | 0.639 | 0.788 | 0.612 | 0.75 | 0.468 | 0.529 | 0.309 | 0.165
